A short description of series [1]: Oral bioavailability in rat. It counts as ADME, organism-based. To be noted: in vivo.
Series [2] is described as follows: in vivo. To be noted: rat, plasma, po.
A short description of series [3]: in vivo. To be noted: rat, plasma, po, 10 mg/kg.
Series [4] is described as follows: in vivo. To be noted: rat, plasma, po. This is another data set of the same source.
The nature of series [5]: in vivo. To be noted: rat, plasma, iv.

The structures appear in SMILES notation.

The compound `CC(C)c1cccc(COC(=O)NC(C(=O)N[C@@H](Cc2ccccc2)C[C@H](O)[C@H](Cc2ccccc2)NC(=O)OCc2cccnc2)C(C)C)n1` (stereo partly drawn) showed a bioavailability in series [1] of 5.6%. This compound also yielded an AUC in “in vivo [2]” of 140 ng·h/mL. The compound also returned a Cmax in “in vivo [3]” of 200 nM. Also, the time of peak concentration (Tmax) in the series “in vivo [4]” is 15 min. In addition, in the series “in vivo [5]”, the half-life was 34.2 min.
Regarding `Cc1ncc(COC(=O)N[C@@H](Cc2ccccc2)[C@@H](O)C[C@H](Cc2ccccc2)NC(=O)C(NC(=O)N(C)Cc2csc(C(C)C)n2)C(C)C)s1` (stereo partly drawn), in series [1], the bioavailability is 23%. This compound also returned an AUC in “in vivo [2]” of 910 ng·h/mL. Moreover, in “in vivo [3]”, the peak level (Cmax) was 650 nM. Moreover, in “in vivo [4]”, the Tmax came to 72 min. For the same compound, the half-life in “in vivo [5]” is 26.4 min.
`CCc1nc(CN(C)C(=O)NC(C(=O)N[C@@H](Cc2ccccc2)[C@@H](O)C[C@H](Cc2ccccc2)NC(=O)OCc2cncs2)C(C)C)cs1` (stereo partly drawn) came in with a F in series [1] of 167%. Further, the AUC in “in vivo [2]” is 9370 ng·h/mL. The compound further had a Cmax in the series “in vivo [3]” of 5120 nM. Also, the Tmax in “in vivo [4]” was 60 min.
Regarding `CC(C)c1nc(CCC(=O)NC(C(=O)N[C@@H](Cc2ccccc2)C[C@H](O)[C@H](Cc2ccccc2)NC(=O)OCc2cccnc2)C(C)C)cs1` (stereo partly drawn), the bioavailability in series [1] was determined as 3.4%. Also, the AUC in the series “in vivo [2]” was found to be 170 ng·h/mL. For the same compound, the highest level in the series “in vivo [3]” (Cmax) was 380 nM. The Tmax in the series “in vivo [4]” came to 6 min. Further, in “in vivo [5]”, the half-life was 16.8 min.
For `CC(C)c1cccc(COC(=O)NC(C(=O)N[C@@H](Cc2ccccc2)[C@@H](O)C[C@H](Cc2ccccc2)NC(=O)OCc2cccnc2)C(C)C)n1` (stereo partly drawn), in that order: 8.3%, 310 ng·h/mL, 310 nM, 15 min and 78.6 min.
Compound `CCc1nc(COC(=O)NC(C(=O)N[C@@H](Cc2ccccc2)C[C@H](O)[C@H](Cc2ccccc2)NC(=O)OCc2cccnc2)C(C)C)cs1` (stereo partly drawn) returned a bioavailability in series [1] of 7.4%. In “in vivo [2]”, this compound displayed an AUC of 330 ng·h/mL. Besides, in “in vivo [3]”, the highest level (Cmax) was 1300 nM. In addition, the Tmax in “in vivo [4]” was 9 min. In “in vivo [5]”, the half-life is 45 min.
For `CCc1cccc(COC(=O)NC(C(=O)N[C@@H](Cc2ccccc2)C[C@H](O)[C@H](Cc2ccccc2)NC(=O)OCc2cccnc2)C(C)C)n1` (stereo partly drawn), in that order: 8%, 470 ng·h/mL, 590 nM, 12 min and 23.4 min.
For `COc1ccc(COC(=O)NC(C(=O)N[C@@H](Cc2ccccc2)C[C@H](O)[C@H](Cc2ccccc2)NC(=O)OCc2cccnc2)C(C)C)nc1` (stereo partly drawn), in that order: 1.3%, 50 ng·h/mL, 290 nM, 6 min and 15 min.
For `CC(C)c1nc(CN(C)C(=O)NC(C(=O)N[C@@H](Cc2ccccc2)C[C@H](O)[C@H](Cc2ccccc2)NC(=O)OCc2ccno2)C(C)C)co1` (stereo partly drawn), in that order: 3.8%, 180 ng·h/mL, 490 nM, 6 min and 24 min.
As for `CC(C)C(NC(=O)OCc1cnccn1)C(=O)N[C@@H](Cc1ccccc1)C[C@H](O)[C@H](Cc1ccccc1)NC(=O)OCc1cccnc1` (stereo partly drawn), in series [1], the bioavailability was found to be 2.4%. The compound also came in with an AUC in “in vivo [2]” of 100 ng·h/mL. Further, the highest concentration (Cmax) in “in vivo [3]” was found to be 500 nM. In addition, the Tmax in the series “in vivo [4]” was found to be 12 min. Moreover, in the series “in vivo [5]”, the half-life is 12 min.
`CCc1ncc(COC(=O)NC(C(=O)N[C@@H](Cc2ccccc2)[C@@H](O)C[C@H](Cc2ccccc2)NC(=O)OCc2cccnc2)C(C)C)s1` (stereo partly drawn) showed a bioavailability in series [1] of 9.2%. This compound showed an AUC in the series “in vivo [2]” of 490 ng·h/mL. Moreover, in “in vivo [3]”, the Cmax turned out to be 340 nM. In addition, the Tmax in the series “in vivo [4]” is 16.8 min. This compound also showed a half-life in the series “in vivo [5]” of 73.8 min.
Turning to `Cc1cccc(COC(=O)NC(C(=O)N[C@@H](Cc2ccccc2)[C@@H](O)C[C@H](Cc2ccccc2)NC(=O)OCc2ccoc2)C(C)C)n1` (stereo partly drawn), the bioavailability in series [1] stood at 0%. In the series “in vivo [5]”, this compound had a half-life of 13.2 min.
The compound `COCc1nc(CN(C)C(=O)NC(C(=O)N[C@@H](Cc2ccccc2)C[C@H](O)[C@H](Cc2ccccc2)NC(=O)OCc2cccnc2)C(C)C)cs1` (stereo partly drawn) yielded a bioavailability in series [1] of 8%. The AUC in “in vivo [2]” came out at 490 ng·h/mL. In “in vivo [3]”, this compound came in with a peak concentration (Cmax) of 1350 nM. For the same compound, in “in vivo [4]”, the Tmax is 12 min. In “in vivo [5]”, this compound gave a half-life of 23.4 min.
As to `CC(C)c1nc(CCC(=O)NC(C(=O)N[C@@H](Cc2ccccc2)[C@@H](O)C[C@H](Cc2ccccc2)NC(=O)OCc2cccnc2)C(C)C)cs1` (stereo partly drawn), the bioavailability in series [1] was 9%. In “in vivo [2]”, the AUC amounted to 410 ng·h/mL. Moreover, the highest level in the series “in vivo [3]” (Cmax) was 320 nM. Further, the Tmax in “in vivo [4]” came to 6 min. This compound showed a half-life in “in vivo [5]” of 54.6 min.
`Cc1ccc(COC(=O)NC(C(=O)N[C@@H](Cc2ccccc2)C[C@H](O)[C@H](Cc2ccccc2)NC(=O)OCc2cccnc2)C(C)C)cn1` (stereo partly drawn) yielded a bioavailability in series [1] of 6.4%. In “in vivo [2]”, this compound displayed an AUC of 270 ng·h/mL. The compound further returned a Cmax in the series “in vivo [3]” of 780 nM. Besides, in the series “in vivo [4]”, the Tmax is 9 min. The half-life in “in vivo [5]” is 39 min.
For `COc1ccc(CN(C)C(=O)NC(C(=O)N[C@@H](Cc2ccccc2)[C@@H](O)C[C@H](Cc2ccccc2)NC(=O)OCc2cccnc2)C(C)C)nc1` (stereo partly drawn), in that order: 17%, 820 ng·h/mL, 2170 nM, 9 min and 36 min.
For `COCc1ncc(COC(=O)NC(C(=O)N[C@@H](Cc2ccccc2)[C@@H](O)C[C@H](Cc2ccccc2)NC(=O)OCc2cccnc2)C(C)C)s1` (stereo partly drawn), in that order: 11%, 420 ng·h/mL, 380 nM, 9 min and 22.2 min.
For `Cc1cncc(COC(=O)NC(C(=O)N[C@@H](Cc2ccccc2)C[C@H](O)[C@H](Cc2ccccc2)NC(=O)OCc2cccnc2)C(C)C)c1` (stereo partly drawn), in that order: 1.6%, 70 ng·h/mL, 330 nM, 9 min and 22.8 min.
`CC(C)c1csc(COC(=O)NC(C(=O)N[C@@H](Cc2ccccc2)C[C@H](O)[C@H](Cc2ccccc2)NC(=O)OCc2cncs2)C(C)C)n1` (stereo partly drawn): the F in series [1] was determined as 151%. Further, the AUC in the series “in vivo [2]” amounted to 14300 ng·h/mL. Also, in “in vivo [3]”, the Cmax turned out to be 5800 nM. The Tmax in “in vivo [4]” was determined as 55.2 min. The half-life in “in vivo [5]” was 30 min.
Consider `Cc1cnc(COC(=O)NC(C(=O)N[C@@H](Cc2ccccc2)[C@@H](O)C[C@H](Cc2ccccc2)NC(=O)OCc2cccnc2)C(C)C)cn1` (stereo partly drawn), for which, in series [1], the bioavailability was found to be 2.8%. The compound also gave an AUC in “in vivo [2]” of 70 ng·h/mL. In the series “in vivo [3]”, this compound showed a Cmax of 350 nM. The Tmax in the series “in vivo [4]” stood at 12 min. The compound further showed a half-life in “in vivo [5]” of 10.8 min.
The compound `CC(NC(=O)OCc1csc(C(C)C)n1)C(=O)N[C@@H](Cc1ccccc1)C[C@H](O)[C@H](Cc1ccccc1)NC(=O)OCc1cncs1` (stereo partly drawn) had a bioavailability in series [1] of 19%. Besides, in “in vivo [2]”, the AUC amounted to 1230 ng·h/mL. This compound came in with a Cmax in the series “in vivo [3]” of 1090 nM. Besides, the Tmax in “in vivo [4]” turned out to be 24 min. In “in vivo [5]”, this compound showed a half-life of 31.8 min.
For `CC(C)C(NC(=O)N(C)Cc1ccccn1)C(=O)N[C@@H](Cc1ccccc1)[C@@H](O)C[C@H](Cc1ccccc1)NC(=O)OCc1cncnc1` (stereo partly drawn), in that order: 13%, 870 ng·h/mL, 2910 nM, 12 min and 21 min.
Consider `CC(C)c1nc(CN(C)C(=O)NCCC(=O)N[C@@H](Cc2ccccc2)C[C@H](O)[C@H](Cc2ccccc2)NC(=O)OCc2cncs2)cs1`, for which the bioavailability in series [1] stood at 7.1%. Moreover, the AUC in “in vivo [2]” was found to be 190 ng·h/mL. Also, the highest level in “in vivo [3]” (Cmax) was 630 nM. The Tmax in the series “in vivo [4]” is 6 min. Also, the half-life in “in vivo [5]” was 57.6 min.
Consider `CC(C)C(NC(=O)OCc1ccccn1)C(=O)N[C@@H](Cc1ccccc1)[C@@H](O)C[C@H](Cc1ccccc1)NC(=O)OCc1cncnc1` (stereo partly drawn), for which the bioavailability in series [1] turned out to be 6.7%. This compound also gave an AUC in “in vivo [2]” of 280 ng·h/mL. Moreover, in “in vivo [3]”, the Cmax is 1180 nM. In addition, the Tmax in the series “in vivo [4]” worked out at 12 min. Moreover, the half-life in the series “in vivo [5]” was 30 min.
For `CC(C)C(NC(=O)OCc1csc(N2CCOCC2)n1)C(=O)N[C@@H](Cc1ccccc1)[C@@H](O)C[C@H](Cc1ccccc1)NC(=O)OCc1cccnc1` (stereo partly drawn), in that order: 1.1%, 30 ng·h/mL, 90 nM, 9 min and 21 min.
For `Cc1ncc(COC(=O)NC(C(=O)N[C@@H](Cc2ccccc2)C[C@H](O)[C@H](Cc2ccccc2)NC(=O)OCc2cccnc2)C(C)C)nc1C` (stereo partly drawn), in that order: 10%, 480 ng·h/mL, 2060 nM, 6 min and 25.8 min.
Regarding `CC(C)C(NC(=O)OCc1csc(N2CCOCC2)n1)C(=O)N[C@@H](Cc1ccccc1)C[C@H](O)[C@H](Cc1ccccc1)NC(=O)OCc1cccnc1` (stereo partly drawn), the bioavailability in series [1] stood at 0%. The half-life in the series “in vivo [5]” was 19.2 min.
In series [1], `Cc1cncc(CN(C)C(=O)NC(C(=O)N[C@@H](Cc2ccccc2)C[C@H](O)[C@H](Cc2ccccc2)NC(=O)OCc2cccnc2)C(C)C)c1` (stereo partly drawn) showed a bioavailability of 9.7%. In addition, the AUC in the series “in vivo [2]” was 310 ng·h/mL. Further, in “in vivo [3]”, the highest level (Cmax) was 690 nM. In addition, in the series “in vivo [4]”, the Tmax is 6 min. In “in vivo [5]”, the half-life was 31.8 min.
The compound `CCc1nc(COC(=O)NC(C(=O)N[C@@H](Cc2ccccc2)[C@@H](O)C[C@H](Cc2ccccc2)NC(=O)OCc2cccnc2)C(C)C)cs1` (stereo partly drawn) registered a bioavailability in series [1] of 9.5%. Besides, the AUC in “in vivo [2]” turned out to be 420 ng·h/mL. This compound also returned a Cmax in the series “in vivo [3]” of 990 nM. Also, in the series “in vivo [4]”, the Tmax came to 6 min. In addition, the half-life in the series “in vivo [5]” was 29.4 min.
`CC(C)C(NC(=O)N(C)Cc1csc(C2CC2)n1)C(=O)N[C@@H](Cc1ccccc1)[C@@H](O)C[C@H](Cc1ccccc1)NC(=O)OCc1cncs1` (stereo partly drawn) yielded a F in series [1] of 175%. Further, the AUC in the series “in vivo [2]” was 10700 ng·h/mL. The compound also registered a Cmax in “in vivo [3]” of 3980 nM. The Tmax in the series “in vivo [4]” stood at 138 min. Moreover, the half-life in the series “in vivo [5]” was 31.8 min.
`CC(C)c1nc(CN(C)C(=O)NC(C(=O)N[C@@H](Cc2ccccc2)C[C@H](O)[C@H](Cc2ccccc2)NC(=O)OCc2cccnc2)C(C)C)cs1` (stereo partly drawn): the bioavailability in series [1] came out at 12%. Besides, the AUC in the series “in vivo [2]” worked out at 530 ng·h/mL. Moreover, the concentration in the series “in vivo [3]” peaked (Cmax) at 980 nM. The Tmax in “in vivo [4]” is 19.8 min. In “in vivo [5]”, this compound had a half-life of 61.8 min.

One may read the bioavailability as dose-corrected exposure relative to a reference, in per cent. Usually AUC stands for concentration integrated over time. A low value points to low exposure. As usually defined, the Cmax is the peak of the concentration-time curve. A word on the Tmax: it is the time at which the peak concentration occurs. As a reminder, the half-life is the time needed for the level to fall by half in the phase considered. A low value points to fast loss.

For the origin of these results see ChEMBL document CHEMBL1131475, “Discovery of ritonavir, a potent inhibitor of HIV protease with high oral bioavailability and clinical efficacy” (J Med Chem, 1998).
